Data: patent US11878975B2, “Substituted indole compounds useful as TLR inhibitors” (BRISTOL-MYERS SQUIBB COMPANY, priority 2017, dated 2024)
pIC50: −log10 of the molar value.

What was measured:
Format in all cases: cell-based
human TLR8 = biological target: T1, human TLR8 (Homo sapiens, UniProt Q9NR97); assay: TLR8 inhibition reporter assay (HEK-Blue cells, SEAP reporter, R848 stimulation); details: HEK-Blue cells overexpressing human TLR8, SEAP reporter, R848 15.9 μM
T1 construct: host or cells: HEK-Blue cells
T1 sequence (Q9NR97 27-1041): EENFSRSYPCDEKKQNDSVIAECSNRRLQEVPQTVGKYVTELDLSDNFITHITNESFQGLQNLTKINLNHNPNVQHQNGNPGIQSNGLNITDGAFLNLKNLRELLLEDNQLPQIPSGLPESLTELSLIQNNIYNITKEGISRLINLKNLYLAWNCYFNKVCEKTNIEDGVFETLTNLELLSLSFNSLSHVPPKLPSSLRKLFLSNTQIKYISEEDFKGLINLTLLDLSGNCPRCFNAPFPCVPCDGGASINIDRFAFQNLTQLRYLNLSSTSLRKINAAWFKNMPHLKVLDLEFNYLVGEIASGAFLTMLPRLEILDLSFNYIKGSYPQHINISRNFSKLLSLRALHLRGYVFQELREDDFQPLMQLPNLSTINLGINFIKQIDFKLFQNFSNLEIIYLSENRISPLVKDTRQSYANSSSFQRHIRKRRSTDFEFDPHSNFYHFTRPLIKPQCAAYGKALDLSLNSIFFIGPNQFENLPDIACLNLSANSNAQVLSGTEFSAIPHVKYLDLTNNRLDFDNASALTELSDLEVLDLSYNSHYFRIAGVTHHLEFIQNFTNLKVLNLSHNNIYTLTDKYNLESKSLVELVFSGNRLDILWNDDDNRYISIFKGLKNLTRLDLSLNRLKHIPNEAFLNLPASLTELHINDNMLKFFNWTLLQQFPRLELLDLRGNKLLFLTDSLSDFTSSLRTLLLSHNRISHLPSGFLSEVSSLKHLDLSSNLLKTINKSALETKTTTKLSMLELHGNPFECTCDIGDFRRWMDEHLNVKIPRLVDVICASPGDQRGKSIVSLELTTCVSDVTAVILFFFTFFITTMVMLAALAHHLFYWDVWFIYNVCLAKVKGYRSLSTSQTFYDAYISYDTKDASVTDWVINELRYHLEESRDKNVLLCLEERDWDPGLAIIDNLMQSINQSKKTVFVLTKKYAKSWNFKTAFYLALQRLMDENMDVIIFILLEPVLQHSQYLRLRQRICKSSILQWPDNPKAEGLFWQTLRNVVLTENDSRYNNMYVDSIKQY
Summary of the method: (§1)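 SEAP readout after 22 h agonist exposure at 37 °C; final agonist levels were 7.5 μM gardiquimod (TLR7), 15.9 μM R848 (TLR8) and 5 nM ODN2006 (TLR9). Inhibitors, spanning 0.05 nM to 50 μM final, were applied 30 min beforehand.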

human TLR9 = biological target: T2, human TLR9 (Homo sapiens, UniProt Q9NR96); assay: TLR9 inhibition reporter assay (HEK-Blue cells, SEAP reporter, ODN2006 stimulation); details: HEK-Blue cells overexpressing human TLR9, SEAP reporter, ODN2006 5 nM
T2 construct: host or cells: HEK-Blue cells
T2 sequence (Q9NR96 26-1032): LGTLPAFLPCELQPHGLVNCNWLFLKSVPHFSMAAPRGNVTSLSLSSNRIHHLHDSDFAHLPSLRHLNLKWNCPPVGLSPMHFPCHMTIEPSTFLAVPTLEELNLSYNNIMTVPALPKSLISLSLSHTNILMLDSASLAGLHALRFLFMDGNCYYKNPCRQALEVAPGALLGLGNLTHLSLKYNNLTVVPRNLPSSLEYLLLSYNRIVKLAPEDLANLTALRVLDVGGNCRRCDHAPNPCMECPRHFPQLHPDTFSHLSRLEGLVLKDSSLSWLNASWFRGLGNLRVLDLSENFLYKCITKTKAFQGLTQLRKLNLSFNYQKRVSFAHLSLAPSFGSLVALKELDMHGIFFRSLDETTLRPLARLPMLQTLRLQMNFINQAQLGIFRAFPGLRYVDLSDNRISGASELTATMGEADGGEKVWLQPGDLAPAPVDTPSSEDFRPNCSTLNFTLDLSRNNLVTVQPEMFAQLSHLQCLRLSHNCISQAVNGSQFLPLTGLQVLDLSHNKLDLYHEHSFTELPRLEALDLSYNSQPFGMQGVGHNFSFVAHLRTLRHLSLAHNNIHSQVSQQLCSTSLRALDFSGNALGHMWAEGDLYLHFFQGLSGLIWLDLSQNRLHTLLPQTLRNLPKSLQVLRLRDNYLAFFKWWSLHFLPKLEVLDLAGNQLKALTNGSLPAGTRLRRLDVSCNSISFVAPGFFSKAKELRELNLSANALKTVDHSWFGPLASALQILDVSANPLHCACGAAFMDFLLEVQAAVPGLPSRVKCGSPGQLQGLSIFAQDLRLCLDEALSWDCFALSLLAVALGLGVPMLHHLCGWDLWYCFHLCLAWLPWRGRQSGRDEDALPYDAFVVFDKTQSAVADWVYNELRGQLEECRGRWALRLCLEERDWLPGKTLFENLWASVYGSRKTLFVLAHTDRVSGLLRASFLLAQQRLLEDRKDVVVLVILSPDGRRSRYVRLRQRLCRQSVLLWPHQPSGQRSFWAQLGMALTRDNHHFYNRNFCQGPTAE
Summary of the method: as §1

human TLR7 = biological target: T3, human TLR7 (Homo sapiens, UniProt Q9NYK1); assay: TLR7 inhibition reporter assay (HEK-Blue cells, SEAP reporter, gardiquimod stimulation); details: HEK-Blue cells overexpressing human TLR7, SEAP reporter, gardiquimod 7.5 μM
T3 construct: host or cells: HEK-Blue cells
T3 sequence (Q9NYK1 27-1049): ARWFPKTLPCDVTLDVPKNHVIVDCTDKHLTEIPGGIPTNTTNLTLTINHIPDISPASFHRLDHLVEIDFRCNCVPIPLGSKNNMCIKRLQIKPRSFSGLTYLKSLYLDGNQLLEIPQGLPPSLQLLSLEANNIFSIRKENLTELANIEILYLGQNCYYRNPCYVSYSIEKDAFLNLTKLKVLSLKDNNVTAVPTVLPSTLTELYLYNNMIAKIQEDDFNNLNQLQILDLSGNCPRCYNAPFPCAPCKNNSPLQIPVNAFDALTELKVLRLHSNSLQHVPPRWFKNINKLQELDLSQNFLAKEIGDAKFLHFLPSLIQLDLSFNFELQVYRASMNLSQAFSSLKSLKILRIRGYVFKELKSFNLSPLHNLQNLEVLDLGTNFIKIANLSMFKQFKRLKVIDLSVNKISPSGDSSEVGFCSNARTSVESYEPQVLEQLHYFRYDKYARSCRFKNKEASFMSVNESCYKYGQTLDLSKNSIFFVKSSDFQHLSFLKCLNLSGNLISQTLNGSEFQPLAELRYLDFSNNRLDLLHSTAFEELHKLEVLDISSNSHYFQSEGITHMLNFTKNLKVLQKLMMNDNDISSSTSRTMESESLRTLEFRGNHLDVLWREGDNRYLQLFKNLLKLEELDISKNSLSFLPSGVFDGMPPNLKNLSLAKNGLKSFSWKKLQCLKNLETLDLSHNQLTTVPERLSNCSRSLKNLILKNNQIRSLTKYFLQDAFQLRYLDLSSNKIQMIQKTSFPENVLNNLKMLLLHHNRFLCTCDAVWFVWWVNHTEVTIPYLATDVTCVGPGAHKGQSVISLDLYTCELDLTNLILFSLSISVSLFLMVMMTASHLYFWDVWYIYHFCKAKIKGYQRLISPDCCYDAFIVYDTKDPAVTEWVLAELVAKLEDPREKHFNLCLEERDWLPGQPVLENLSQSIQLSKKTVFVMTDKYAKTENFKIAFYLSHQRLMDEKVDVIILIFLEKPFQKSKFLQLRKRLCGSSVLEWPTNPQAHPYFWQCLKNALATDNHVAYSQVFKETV
Summary of the method: as §1

Row | SMILES | pIC50 (human TLR8) | pIC50 (human TLR9) | pIC50 (human TLR7)
1 | Cc1cc(-c2[nH]c3ccc(C4CN(CC(C)(C)O)CCO4)cc3c2C(C)C)cn2ncnc12 (stereo not drawn) [Example 355, 1-(2-(3-isopropyl-2-(8-methyl-[1,2,4]triazolo[1,5-a]pyridin-6-yl)-1H-indol-5-yl)morpholino)-2-methylpropan-2-ol] | 8.85 | 4.54 | 8.30
2 | Cc1cc(-c2[nH]c3ccc(C4CCC(NCC(C)(C)O)CC4)cc3c2C(C)C)cn2ncnc12 (stereo not drawn) [Example 104] | 8.19 | 5.19 | 8.52
3 | Cc1cc(-c2[nH]c3ccc(C4CCC(NC5COC5)CC4)cc3c2C(C)C)cn2ncnc12 (stereo not drawn) [Example 57] | 8.09 | 5.22 | 9.00
4 | COc1cc(-c2[nH]c3ccc(C4CCC(NC5COC5)CC4)cc3c2C(C)C)cn2ncnc12 (stereo not drawn) [Example 64] | 9.06 | 5.52 | 9.82
5 | CNC(=O)CN1CCCC(c2ccc3[nH]c(-c4cn5ncnc5c(C)c4C)c(C(C)C)c3c2)C1 (stereo not drawn) [Example 231] | 8.34 | 4.76 | 8.05
6 | Cc1cc(-c2[nH]c3ccc(C4CCCN(C(=O)C5(C)CC5)C4)cc3c2C(C)C)cc(C)n1 (stereo not drawn) [Example 199] | 6.37 | 4.43 | 7.05
7 | Cc1c(-c2[nH]c3ccc(C4CCC(NC5COC5)CC4)cc3c2C(C)C)cn(C)c(=O)c1C (stereo not drawn) [Example 477] | 8.74 | 5.09 | 8.70
8 | Cc1cc(-c2[nH]c3ccc(C4CCCNC4)cc3c2C(C)C)ccn1 (stereo not drawn) [Example 184] | 8.42 | 6.06 | 7.92
9 | Cc1cc(-c2[nH]c3ccc(C4CCCCC4)cc3c2C(C)C)cn(C)c1=O [Example 470] | 5.51 | 4.74 | 6.25
10 | CNC(=O)CN1CCOC(c2ccc3[nH]c(-c4cc(C)c5ncnn5c4)c(C(C)C)c3c2)C1 (stereo not drawn) [Example 317] | 7.05 | < 4.30 | 7.92
11 | COc1ccc(-c2[nH]c3ccc(C4CCC(N)CC4)cc3c2C(C)C)cc1OC (stereo not drawn) [Example 450] | 7.96 | 5.66 | 8.10
12 | Cc1c(-c2[nH]c3ccc(C4CN(CC(C)(C)O)C4)cc3c2C(C)C)cn2ncnc2c1C [Example 557] | 8.44 | 5.17 | 8.05
13 | Cc1cc(-c2[nH]c3ccc(C4CN(C)CCO4)cc3c2C(C)C)cn2ncnc12 (stereo not drawn) [Example 296] | 8.20 | 5.08 | 8.52
14 | Cc1cc(-c2[nH]c3ccc(C4CCC(NC(=O)CN(C)C)CC4)cc3c2C(C)C)cc(C)n1 (stereo not drawn) [Example 119] | 8.14 | 6.01 | 9.02
15 | COc1cc(-c2[nH]c3ccc(C4CCC(N5CC6(COC6)C5)CC4)cc3c2C(C)C)cn2ncnc12 (stereo not drawn) [Example 73] | 9.24 | 5.80 | 9.49
16 | CCc1c(-c2ccnc(C)c2)[nH]c2ccc(CNC(=O)C3CC4(CCNCC4)C3)cc12 [Example 447] | 7.85 | 5.94 | 5.40
17 | COCCN1CCN(C2CCC(c3ccc4[nH]c(-c5cc(OC)c6ncnn6c5)c(C(C)C)c4c3)CC2)CC1 (single isomer, unassigned) [Example 39] | 8.24 | 5.65 | 8.05
18 | Cc1c(-c2[nH]c3ccc(C4CCC(NCC(=O)N(C)C)CC4)cc3c2C(C)C)cn(C)c(=O)c1C (stereo not drawn) [Example 473] | 7.82 | 5.05 | 7.47
19 | Cc1cc(-c2[nH]c3ccc([C@H]4C[C@H]4C(=O)N4CC5CNCC5C4)cc3c2C(C)C)ccn1 (stereo partly drawn) [Example 455] | 7.80 | 6.49 | 6.73
20 | Cc1cc(-c2[nH]c3ccc(C4CCCN(C(=O)C5CNC5)C4)cc3c2C(C)C)cc(C)n1 (stereo not drawn) [Example 215] | 6.91 | 6.17 | 7.72
21 | Cc1cc(-c2[nH]c3ccc(CCN4CCCC(F)(F)C4)cc3c2C(C)C)cn(C)c1=O [Example 404] | 7.51 | < 4.30 | 7.30
22 | COc1cc(-c2[nH]c3ccc(C4CCC(N5CCOCC5)CC4)cc3c2C(C)C)cn2ncnc12 (stereo not drawn) [Example 76] | 8.24 | 5.65 | 9.00
23 | Cc1c(-c2[nH]c3ccc(C4CCC(N(C)C)CC4)cc3c2C(C)C)cn2cnnc2c1C (stereo not drawn) [Example 527] | 8.35 | 6.12 | 9.28
24 | Cc1c(-c2[nH]c3ccc(C4CCC(N5CC(CO)(CO)C5)CC4)cc3c2C(C)C)cn2ncnc2c1C (single isomer, unassigned) [Example 27] | 8.55 | 5.75 | 8.70
25 | COCCN1CC(c2ccc3[nH]c(-c4cc(C)c5ncnn5c4)c(C(C)C)c3c2)OCC1(C)C (stereo not drawn) [Example 382] | 8.47 | 5.14 | 7.82
26 | COc1cc(-c2[nH]c3ccc(C4CCC(NC(=O)CN(C)C)CC4)cc3c2C(C)C)cn2ncnc12 (stereo not drawn) [Example 122] | 8.62 | 5.06 | 9.62
